Experimental data published in ChEMBL document CHEMBL1909046, “DrugMatrix in vitro pharmacology data”.
pIC50, pKi: −log10 of the molar value.

Assay: DRUGMATRIX: ATPase, Na+/K+ enzyme inhibition (substrate: ATP)
Format: tissue-based, Sus scrofa, Heart
Settings: Not Active = under 50% inhibition at 10 µM

Compound | IC50 | Ki
C[N+](C)(C)CCOC(=O)CCC(=O)OCC[N+](C)(C)C.[Cl-].[Cl-] [SUCCINYLCHOLINE CHLORIDE] | Not Active | Not Active
Nc1ccc(S(=O)(=O)NC(=O)c2ccccc2)cc1 [SULFABENZAMIDE] | Not Active | Not Active
CCCCCCCCNC(C)C(O)c1ccc(SC(C)C)cc1 (stereo unspecified) [SULOCTIDIL] | Not Active | Not Active
O=c1[nH]c(=O)n(C2CCCO2)cc1F (stereo unspecified) [TEGAFUR] | Not Active | Not Active
CC(=N)S [THIOACETAMIDE] | Not Active | Not Active
Cc1ccc(C(=O)c2ccc(CC(=O)O)n2C)cc1 [TOLMETIN] | Not Active | Not Active
CC(=O)OCC(COC(C)=O)OC(C)=O [TRIACETIN] | Not Active | Not Active
CN1CCN(CCCN2c3ccccc3Sc3ccc(C(F)(F)F)cc32)CC1 [TRIFLUOPERAZINE] | Not Active | Not Active
TRANSPLATIN | Not Active | Not Active
ZIRCONIUM(IV) CHLORIDE | Not Active | Not Active

Assay: DRUGMATRIX: Atrial Natriuretic Factor (ANF) radioligand binding (ligand: [125I] ANF (rat))
Format: cell membranes, Cavia porcellus, Dunkin-Hartley, Adrenal gland, Membrane
Settings: Not Active = under 50% inhibition at 10 µM

Compound | IC50 | Ki
C[N+](C)(C)CCOC(=O)CCC(=O)OCC[N+](C)(C)C.[Cl-].[Cl-] [SUCCINYLCHOLINE CHLORIDE] | Not Active | Not Active
Nc1ccc(S(=O)(=O)NC(=O)c2ccccc2)cc1 [SULFABENZAMIDE] | Not Active | Not Active
O=c1[nH]c(=O)n(C2CCCO2)cc1F (stereo unspecified) [TEGAFUR] | Not Active | Not Active
CC(=N)S [THIOACETAMIDE] | Not Active | Not Active
Cc1ccc(C(=O)c2ccc(CC(=O)O)n2C)cc1 [TOLMETIN] | Not Active | Not Active
CC(=O)OCC(COC(C)=O)OC(C)=O [TRIACETIN] | Not Active | Not Active
CN1CCN(CCCN2c3ccccc3Sc3ccc(C(F)(F)F)cc32)CC1 [TRIFLUOPERAZINE] | Not Active | Not Active
TRANSPLATIN | Not Active | Not Active
ZIRCONIUM(IV) CHLORIDE | Not Active | Not Active

Assay: DRUGMATRIX: Calcium Channel Type L, Benzothiazepine radioligand binding (ligand: [3H] Diltiazem)
Format: cell membranes, Rattus norvegicus, Wistar, Brain, Membrane
Settings: Not Active = under 50% inhibition at 10 µM

Compound | IC50 | Ki
C[N+](C)(C)CCOC(=O)CCC(=O)OCC[N+](C)(C)C.[Cl-].[Cl-] [SUCCINYLCHOLINE CHLORIDE] | Not Active | Not Active
Nc1ccc(S(=O)(=O)NC(=O)c2ccccc2)cc1 [SULFABENZAMIDE] | Not Active | Not Active
O=c1[nH]c(=O)n(C2CCCO2)cc1F (stereo unspecified) [TEGAFUR] | Not Active | Not Active
CC(=N)S [THIOACETAMIDE] | Not Active | Not Active
Cc1ccc(C(=O)c2ccc(CC(=O)O)n2C)cc1 [TOLMETIN] | Not Active | Not Active
CC(=O)OCC(COC(C)=O)OC(C)=O [TRIACETIN] | Not Active | Not Active
CN1CCN(CCCN2c3ccccc3Sc3ccc(C(F)(F)F)cc32)CC1 [TRIFLUOPERAZINE] | Not Active | Not Active
TRANSPLATIN | Not Active | Not Active
ZIRCONIUM(IV) CHLORIDE | Not Active | Not Active

Same assay, conditions: Not Active = under 50% inhibition at 10 µM; read-out: IC50

Compound | pIC50
CCCCCCCCNC(C)C(O)c1ccc(SC(C)C)cc1 (stereo unspecified) [SULOCTIDIL] | 6.77

Same assay, conditions: Not Active = under 50% inhibition at 10 µM; read-out: Ki

Compound | pKi
CCCCCCCCNC(C)C(O)c1ccc(SC(C)C)cc1 (stereo unspecified) [SULOCTIDIL] | 6.82

Assay: DRUGMATRIX: Tumor Necrosis Factor (TNF), Non-Selective radioligand binding (ligand: [125I] TNF-alpha)
Format: cell membranes, Membrane
Settings: u-937; Not Active = under 50% inhibition at 10 µM

Compound | IC50 | Ki
C[N+](C)(C)CCOC(=O)CCC(=O)OCC[N+](C)(C)C.[Cl-].[Cl-] [SUCCINYLCHOLINE CHLORIDE] | Not Active | Not Active
Nc1ccc(S(=O)(=O)NC(=O)c2ccccc2)cc1 [SULFABENZAMIDE] | Not Active | Not Active
O=c1[nH]c(=O)n(C2CCCO2)cc1F (stereo unspecified) [TEGAFUR] | Not Active | Not Active
CC(=N)S [THIOACETAMIDE] | Not Active | Not Active
Cc1ccc(C(=O)c2ccc(CC(=O)O)n2C)cc1 [TOLMETIN] | Not Active | Not Active
CC(=O)OCC(COC(C)=O)OC(C)=O [TRIACETIN] | Not Active | Not Active
CN1CCN(CCCN2c3ccccc3Sc3ccc(C(F)(F)F)cc32)CC1 [TRIFLUOPERAZINE] | Not Active | Not Active
TRANSPLATIN | Not Active | Not Active
ZIRCONIUM(IV) CHLORIDE | Not Active | Not Active

Assay: DRUGMATRIX: GABAA, Muscimol, Central radioligand binding (ligand: [3H] Muscimol)
Format: cell membranes, Rattus norvegicus, Wistar, Brain, Membrane
Settings: Not Active = under 50% inhibition at 10 µM

Compound | IC50 | Ki
C[N+](C)(C)CCOC(=O)CCC(=O)OCC[N+](C)(C)C.[Cl-].[Cl-] [SUCCINYLCHOLINE CHLORIDE] | Not Active | Not Active
Nc1ccc(S(=O)(=O)NC(=O)c2ccccc2)cc1 [SULFABENZAMIDE] | Not Active | Not Active
CCCCCCCCNC(C)C(O)c1ccc(SC(C)C)cc1 (stereo unspecified) [SULOCTIDIL] | Not Active | Not Active
O=c1[nH]c(=O)n(C2CCCO2)cc1F (stereo unspecified) [TEGAFUR] | Not Active | Not Active
CC(=N)S [THIOACETAMIDE] | Not Active | Not Active
Cc1ccc(C(=O)c2ccc(CC(=O)O)n2C)cc1 [TOLMETIN] | Not Active | Not Active
CC(=O)OCC(COC(C)=O)OC(C)=O [TRIACETIN] | Not Active | Not Active
CN1CCN(CCCN2c3ccccc3Sc3ccc(C(F)(F)F)cc32)CC1 [TRIFLUOPERAZINE] | Not Active | Not Active
TRANSPLATIN | Not Active | Not Active
ZIRCONIUM(IV) CHLORIDE | Not Active | Not Active

Assay: DRUGMATRIX: GABAA, Flunitrazepam, Central radioligand binding (ligand: [3H] Flunitrazepam)
Format: cell membranes, Rattus norvegicus, Wistar, Brain, Membrane
Settings: Not Active = under 50% inhibition at 10 µM

Compound | IC50 | Ki
C[N+](C)(C)CCOC(=O)CCC(=O)OCC[N+](C)(C)C.[Cl-].[Cl-] [SUCCINYLCHOLINE CHLORIDE] | Not Active | Not Active
Nc1ccc(S(=O)(=O)NC(=O)c2ccccc2)cc1 [SULFABENZAMIDE] | Not Active | Not Active
CCCCCCCCNC(C)C(O)c1ccc(SC(C)C)cc1 (stereo unspecified) [SULOCTIDIL] | Not Active | Not Active
O=c1[nH]c(=O)n(C2CCCO2)cc1F (stereo unspecified) [TEGAFUR] | Not Active | Not Active
CC(=N)S [THIOACETAMIDE] | Not Active | Not Active
Cc1ccc(C(=O)c2ccc(CC(=O)O)n2C)cc1 [TOLMETIN] | Not Active | Not Active
CC(=O)OCC(COC(C)=O)OC(C)=O [TRIACETIN] | Not Active | Not Active
CN1CCN(CCCN2c3ccccc3Sc3ccc(C(F)(F)F)cc32)CC1 [TRIFLUOPERAZINE] | Not Active | Not Active
TRANSPLATIN | Not Active | Not Active
ZIRCONIUM(IV) CHLORIDE | Not Active | Not Active

Assay: DRUGMATRIX: Leukotriene, BLT (LTB4) radioligand binding (ligand: [3H]LTB4)
Format: cell membranes, Membrane
Settings: u-937; Not Active = under 50% inhibition at 10 µM

Compound | IC50 | Ki
C[N+](C)(C)CCOC(=O)CCC(=O)OCC[N+](C)(C)C.[Cl-].[Cl-] [SUCCINYLCHOLINE CHLORIDE] | Not Active | Not Active
Nc1ccc(S(=O)(=O)NC(=O)c2ccccc2)cc1 [SULFABENZAMIDE] | Not Active | Not Active
O=c1[nH]c(=O)n(C2CCCO2)cc1F (stereo unspecified) [TEGAFUR] | Not Active | Not Active
CC(=N)S [THIOACETAMIDE] | Not Active | Not Active
Cc1ccc(C(=O)c2ccc(CC(=O)O)n2C)cc1 [TOLMETIN] | Not Active | Not Active
CC(=O)OCC(COC(C)=O)OC(C)=O [TRIACETIN] | Not Active | Not Active
CN1CCN(CCCN2c3ccccc3Sc3ccc(C(F)(F)F)cc32)CC1 [TRIFLUOPERAZINE] | Not Active | Not Active
TRANSPLATIN | Not Active | Not Active
ZIRCONIUM(IV) CHLORIDE | Not Active | Not Active

Same assay, conditions: u-937; Not Active = under 50% inhibition at 10 µM; read-out: IC50

Compound | pIC50
CCCCCCCCNC(C)C(O)c1ccc(SC(C)C)cc1 (stereo unspecified) [SULOCTIDIL] | 5.84

Same assay, conditions: u-937; Not Active = under 50% inhibition at 10 µM; read-out: Ki

Compound | pKi
CCCCCCCCNC(C)C(O)c1ccc(SC(C)C)cc1 (stereo unspecified) [SULOCTIDIL] | 6.44

Assay: DRUGMATRIX: Potassium Channel [KATP] radioligand binding (ligand: [3H] Glyburide)
Format: cell membranes, Membrane
Settings: hit-t15; Not Active = under 50% inhibition at 10 µM

Compound | IC50 | Ki
C[N+](C)(C)CCOC(=O)CCC(=O)OCC[N+](C)(C)C.[Cl-].[Cl-] [SUCCINYLCHOLINE CHLORIDE] | Not Active | Not Active
Nc1ccc(S(=O)(=O)NC(=O)c2ccccc2)cc1 [SULFABENZAMIDE] | Not Active | Not Active
CCCCCCCCNC(C)C(O)c1ccc(SC(C)C)cc1 (stereo unspecified) [SULOCTIDIL] | Not Active | Not Active
O=c1[nH]c(=O)n(C2CCCO2)cc1F (stereo unspecified) [TEGAFUR] | Not Active | Not Active
CC(=N)S [THIOACETAMIDE] | Not Active | Not Active
Cc1ccc(C(=O)c2ccc(CC(=O)O)n2C)cc1 [TOLMETIN] | Not Active | Not Active
CC(=O)OCC(COC(C)=O)OC(C)=O [TRIACETIN] | Not Active | Not Active
CN1CCN(CCCN2c3ccccc3Sc3ccc(C(F)(F)F)cc32)CC1 [TRIFLUOPERAZINE] | Not Active | Not Active
TRANSPLATIN | Not Active | Not Active
ZIRCONIUM(IV) CHLORIDE | Not Active | Not Active
